Assay results: patent US4952580A, “Pesticidal polyhaloalkene derivatives” (priority 1988, dated 1990)
Like-named read-outs stand apart in the source and are kept apart here.

Columns and labels:
[1] = tested on: root-knot nematode (Meloidogyne incognita); experiment: Initial Root-Knot Nematicidal Activity; assay type: in vivo; details: 336 h, read-out: Percent Control; for pest or weed control at 0.313 ppm: Table 2, Application Rate 0.313 ppm; for pest or weed control at 0.625 ppm: Table 2, Application Rate 0.625 ppm; for pest or weed control at 1.25 ppm: Table 2, Application Rate 1.25 ppm; for pest or weed control at 0.312 ppm: Table 2, Application Rate 0.312 ppm; for pest or weed control at 0.078 ppm: Table 2, Application Rate 0.078 ppm; for pest or weed control at 0.156 ppm: Table 2, Application Rate 0.156 ppm
Experimental: (§1) Compounds of this invention were tested as follows for nematicidal and anthelmintic activity as dust formulations (initial and residual activity) and as acetone/water formulations (systemic activity). The formulations are described above.
The activity against root-knot nematode (Meloidogyne incognita) was determined by incorporating the compound of the invention in nematode infested soil at rates in the range of 10 ppm to 0.078 ppm of compound. Several tomato or cucumber seedlings were planted in the nematode infested soil. Two weeks after planting the test pots were evaluated to ascertain the degree of galling (swelling) on the roots of the plants, indicating the control provided by the test chemical.
The results expressed as precent control (determined by knot index) are set forth as averages in Table 2 (appended). Knot index is a numerical designation assigned at evaluation, having the following meanings:
Percent control is related to knot index as follows:
When the Knot Index is between 0 and 1 it is further subdivided as follows to indicate how close the percent control is to 75% or 100%: […]

[2] = tested on: lesion nematode; experiment: Lesion Nematode Test; assay type: in vivo; details: read-out: Percent Control
Experimental: as §1
The procedure was substantially the same as in the stunt nematode test described above except that pea seedlings were used. The results (Table 5 appended) show good control with many of the compounds at the application rates tested as compared with untreated samples (no control). "Percent Control" is defined as follows: [formula]

[3] = tested on: Caenorhabditis elegans; experiment: C. Elegans Nematode Screening Test and Evaluation (in-vitro); details: for inhibition at 5 ppm / mortality at 5 ppm / inhibition at 1.25 ppm / mortality at 1.25 ppm / inhibition at 2.5 ppm / mortality at 2.5 ppm: Caenorhabditis elegans; for inhibition at 5 ppm / inhibition at 1.25 ppm / inhibition at 2.5 ppm: read-out: Percent Inhibition of Reproduction; for mortality at 5 ppm / mortality at 1.25 ppm / mortality at 2.5 ppm: read-out: Percent Mortality
Experimental: This in-vitro test using the free-living nematode Caenorhabditis elegans, is a modification of the assay developed by Simpkin and Coles, J. Chem. Tech. […] One milliliter of a test medium consisting of 5 mg ampicillin, 10,000 units of mycostatin and 10 ml of a dense suspension of Escherichia coli per 100 ml of a buffer solution, was pipetted into each well of a 24-well microtiter plate. The candidate nematicide, suspended at the appropriate concentration in dimethylsulfoxide, was added to the wells in […] volumes. Each rate of application was replicated two to three times. After thorough mixing of the contents of each well, 50 to 100 μl of a nematode suspension in a buffer was added so that each well received 10-15 nematodes. After the nematodes were added, the microtiter plates were incubated at 20° C. for 5-6 days.
The effect of the candidate nematicide on the survival and the reproduction of C. elegans was then evaluated by comparison of the level of population developed in the treated wells with that in untreated wells. Specific effects on population development, such as reduced egg hatch or molting disruption, were noted if they were evident.

[4] = tested on: root-knot nematode; experiment: Soil Mobility against root-knot nematode; assay type: in vivo, Meloidogyne incognita; details: 336 h, Table 7a, 5% dust, 5 ppm, read-out: Percent Control
Experimental: as §1
The ability of nematicidal compounds of the invention to move through nematode-infested soil […] infested soil, and subsequently eluting the soil with 15 cm of water (equivalent to 15 cm of rainfall) into a series of two or more pots of untreated, but nematode-infested, soil. Specifically, the pots were 8 cm diameter plastic pots containing a 10 cm^3 layer of sand over a coarse grade filter paper disc. Sufficient soil was placed over the sand to fill the pots, and a second filter paper disc was placed over the soil. Each test compound-treated pot was nested over a series of two or more pots containing untreated, but nematode-infested soil, also containing sand filter paper discs as described for the treated soil pots. Fifteen cm of water was slowly dripped into the top pots and the pots were allowed to drain for 16-18 hours to remove excess water. The top filter of each pot was then removed and the pots were planted with a cucumber or tomato seedling. […] "Knot Index" and "Percent Control" are as defined in the initial root-knot nematode tests above.

[5] = Table 2, Application Rate 2.5 ppm
[6] = Table 2, Application Rate 5.0 ppm
[7] = Table 2, Application Rate 10.0 ppm

## O=C(OCCC(F)=C(F)F)C(F)(F)C(F)(F)C(F)(F)F [Compound 3, (3,4,4-trifluoro-3-butenyl) heptafluorobutyrate]
[1]
  pest or weed control at 2.5 ppm: 71%
  pest or weed control at 5 ppm: 83%
  pest or weed control at 10 ppm: 95%

## O=C(OCCC(F)=C(F)F)c1ccc(Cl)cc1 [Compound 4, (3,4,4-trifluoro-3-butenyl) 4-chlorobenzoate]
[1]
  pest or weed control at 0.313 ppm: 38%
  pest or weed control at 0.625 ppm: 44%
  pest or weed control at 1.25 ppm: 56%
[1]; [5]
  pest or weed control at 2.5 ppm: 99%

## O=C1CCC(=O)N1CCC(F)=C(F)F [Compound 5, N-(3,4,4-trifluoro-3-butenyl)succinimide]
[1]
  pest or weed control at 0.313 ppm: 0%
  pest or weed control at 0.625 ppm: 6%
  pest or weed control at 1.25 ppm: 70%
[1]; [5]
  pest or weed control at 2.5 ppm: 81%

## OCCCC(F)=C(F)F [Compound 7, 4,5,5-trifluoro-4-penten-1-ol]
[1]; [5]
  pest or weed control at 2.5 ppm: 25%
[1]; [6]
  pest or weed control at 5 ppm: 44%
[1]; [7]
  pest or weed control at 10 ppm: 79%

## FC(F)=C(F)CCSc1cccs1 [Compound 10, 2-(3,4,4-trifluoro-3-butenylthio)thiopene]
[1]
  pest or weed control at 0.625 ppm: 63%
  pest or weed control at 1.25 ppm: 81%
  pest or weed control at 2.5 ppm: 95%
[1]; [6]
  pest or weed control at 5 ppm: 99%
[2]
  pest or weed control at 2.5 ppm: 33%

## FC(F)=C(F)CCSCc1cc2ccccc2s1 [Compound 11, 2-(3,4,4-trifluoro-3-butenylthiomethyl)-thianaphthene]
[1]
  pest or weed control at 0.625 ppm: 0%
  pest or weed control at 1.25 ppm: 67%
[1]; [5]
  pest or weed control at 2.5 ppm: 78%
[1]; [6]
  pest or weed control at 5 ppm: 83%

## C#CCSc1nnc(SCCC(F)=C(F)F)s1 [Compound 14, 2-propargylthio-5-(3,4,4-trifluoro-3-butenylthio)-1,3,4-thiadiazole]
[1]
  pest or weed control at 0.313 ppm: 0%
  pest or weed control at 0.625 ppm: 0%
  pest or weed control at 1.25 ppm: 25%
[1]; [5]
  pest or weed control at 2.5 ppm: 83%

## O=C(OCCC(F)=C(F)F)C(F)(F)C(F)(F)F [Compound 19, (3,4,4-trifluoro-3-butenyl) pentafluoropropionate, mono diethyl etherate]
[1]; [5]
  pest or weed control at 2.5 ppm: 58%
[1]; [6]
  pest or weed control at 5 ppm: 75%
[1]; [7]
  pest or weed control at 10 ppm: 69%

## O=C(OCCC(F)=C(F)F)c1cccs1 [Compound 20]
[1]
  pest or weed control at 0.313 ppm: 0%
  pest or weed control at 0.625 ppm: 6%
  pest or weed control at 1.25 ppm: 63%
[1]; [5]
  pest or weed control at 2.5 ppm: 98%

## O=C(OCCC(F)=C(F)F)c1ccc[nH]1 [Compound 22, (3,4,4-trifluoro-3-butenyl) 2-pyrrolecarboxylate]
[1]
  pest or weed control at 0.313 ppm: 0%
  pest or weed control at 0.625 ppm: 0%
  pest or weed control at 1.25 ppm: 44%
[1]; [5]
  pest or weed control at 2.5 ppm: 96%

## O=C(CSC1=NCCS1)OCCC(F)=C(F)F [Compound 23, (3,4,4-trifluoro-3-butenyl) [2-(4,5-dihydrothiazolyl)thio]acetate]
[1]; [5]
  pest or weed control at 2.5 ppm: 76%
[1]; [6]
  pest or weed control at 5 ppm: 84%
[1]; [7]
  pest or weed control at 10 ppm: 96%

## O=C1c2ccccc2S(=O)(=O)N1CCC(F)=C(F)F [Compound 24, N-(3,4,4-trifluoro-3-butenyl)saccharine]
[1]; [5]
  pest or weed control at 2.5 ppm: 19%
[1]; [6]
  pest or weed control at 5 ppm: 63%
[1]; [7]
  pest or weed control at 10 ppm: 78%

## O=[N+]([O-])c1ccc(CSc2nsc(SCCC(F)=C(F)F)n2)cc1 [Compound 26, 3-(4-nitrophenylmethylthio)-5-(3,4,4-trifluoro-3-butenylthio)-1,2,4-thiadiazole]
[1]
  pest or weed control at 0.312 ppm: 0%
  pest or weed control at 0.625 ppm: 0%
  pest or weed control at 1.25 ppm: 63%
[1]; [5]
  pest or weed control at 2.5 ppm: 86%
[3]; Table 9 screen, 5 ppm
  inhibition at 5 ppm: 100%
  mortality at 5 ppm: 100%
[3]; Table 10 evaluation, 5 ppm
  mortality at 5 ppm: 100%
[3]; Table 10 evaluation, 1.25 ppm
  inhibition at 1.25 ppm: 100%
  mortality at 1.25 ppm: 100%
[3]; Table 10 evaluation, 2.5 ppm
  inhibition at 2.5 ppm: 100%
  mortality at 2.5 ppm: 100%

## FC(F)=C(F)CCSc1nnc(SCc2ccccc2F)s1 [Compound 34, 2-(2-fluorophenylmethylthio)-5-(3,4,4-trifluoro-3-butenylthio)-1,3,4-thiadiazole]
[1]
  pest or weed control at 0.078 ppm: 38%
  pest or weed control at 0.156 ppm: 64%
  pest or weed control at 0.312 ppm: 86%
  pest or weed control at 0.625 ppm: 99%
  pest or weed control at 1.25 ppm: 99%
[1]; [5]
  pest or weed control at 2.5 ppm: 100%
[4]; BOTTOM container
  pest or weed control at 5 ppm: 8%
[4]; MIDDLE container
  pest or weed control at 5 ppm: 67%
[4]; TOP container
  pest or weed control at 5 ppm: 98%
[3]; Table 9 screen, 5 ppm
  inhibition at 5 ppm: 100%
  mortality at 5 ppm: 25%
[3]; Table 10 evaluation, 5 ppm
  mortality at 5 ppm: 100%
[3]; Table 10 evaluation, 1.25 ppm
  inhibition at 1.25 ppm: 0%
  mortality at 1.25 ppm: 0%
[3]; Table 10 evaluation, 2.5 ppm
  inhibition at 2.5 ppm: 100%
  mortality at 2.5 ppm: 100%
[2]; Table 5, rate 2.5 ppm
  pest or weed control at 2.5 ppm: 52%

## FC(F)=C(F)CCSc1nnc(-c2ccc(Cl)cc2)s1 [Compound 37, 2-(4-chlorophenyl)-5-(3,4,4-trifluoro-3-butenylthio)-1,3,4-thiadiazole]
[1]
  pest or weed control at 0.078 ppm: 0%
  pest or weed control at 0.156 ppm: 0%
  pest or weed control at 0.312 ppm: 0%
  pest or weed control at 0.625 ppm: 0%
[3]; Table 9 screen, 5 ppm
  inhibition at 5 ppm: 100%
  mortality at 5 ppm: 100%
[3]; Table 10 evaluation, 5 ppm
  mortality at 5 ppm: 100%
[3]; Table 10 evaluation, 1.25 ppm
  inhibition at 1.25 ppm: 100%
  mortality at 1.25 ppm: 100%
[3]; Table 10 evaluation, 2.5 ppm
  inhibition at 2.5 ppm: 100%
  mortality at 2.5 ppm: 100%

## FC(F)=C(F)CCSc1nc(Cc2ccc(F)cc2)no1 [Compound 38, 3-(4-fluorophenylmethyl)-5-(3,4,4-trifluoro-3-butenylthio)-1,2,4-oxadiazole]
[1]
  pest or weed control at 0.312 ppm: 63%
  pest or weed control at 0.625 ppm: 76%
  pest or weed control at 1.25 ppm: 96%
[1]; [5]
  pest or weed control at 2.5 ppm: 98%
[4]; BOTTOM container
  pest or weed control at 5 ppm: 0%
[4]; MIDDLE container
  pest or weed control at 5 ppm: 0%
[4]; TOP container
  pest or weed control at 5 ppm: 0%

## FC(F)=C(F)CCSc1nc(-c2ccc(Cl)cc2)no1 [Compound 39, 3-(4-chlorophenyl)-5-(3,4,4-trifluoro-3-butenylthio)-1,2,4-oxadiazole]
[1]
  pest or weed control at 0.312 ppm: 19%
  pest or weed control at 0.625 ppm: 84%
  pest or weed control at 1.25 ppm: 98%
[1]; [5]
  pest or weed control at 2.5 ppm: 100%
[3]; Table 9 screen, 5 ppm
  inhibition at 5 ppm: 100%
  mortality at 5 ppm: 100%
[3]; Table 10 evaluation, 5 ppm
  mortality at 5 ppm: 100%
  Percent Mortality: 100%
[3]; Table 10 evaluation, 1.25 ppm
  inhibition at 1.25 ppm: 100%
  mortality at 1.25 ppm: 67%
  Percent Mortality: 58%
[3]; Table 10 evaluation, 2.5 ppm
  inhibition at 2.5 ppm: 100%
  mortality at 2.5 ppm: 100%
  Percent Mortality: 100%

## O=[N+]([O-])c1ccc(-c2noc(SCCC(F)=C(F)F)n2)cc1 [Compound 40, 3-(4-nitrophenyl)-5-(3,4,4-trifluoro-3-butenylthio)-1,2,4-oxadiazole]
[1]
  pest or weed control at 0.312 ppm: 0%
  pest or weed control at 0.625 ppm: 56%
  pest or weed control at 1.25 ppm: 84%
[1]; [5]
  pest or weed control at 2.5 ppm: 99%
[3]; Table 10 evaluation, 5 ppm
  inhibition at 5 ppm: 100%
  mortality at 5 ppm: 100%
[3]; Table 10 evaluation, 1.25 ppm
  inhibition at 1.25 ppm: 100%
  mortality at 1.25 ppm: 100%
[3]; Table 10 evaluation, 2.5 ppm
  inhibition at 2.5 ppm: 100%
  mortality at 2.5 ppm: 100%
